Data taken from US20110028719A1, “SCREENING METHODS FOR AMYLOID BETA MODULATORS” (priority 2006, published 2011).
Counter-ions that a name gives are not always drawn.

Target: immobilized Aβ fibrils (Homo sapiens, UniProt P05067)
Assay: FAC-MS assay of free Aβ monomer (indicator) binding to immobilized Aβ fibrils in the presence of test compounds
Conditions: FAC-MS % shift of breakthrough time of free Aβ1-42 monomer (1 μM) on immobilized Aβ fibrils; compounds 1-10 μM in 20 mM NH4OAc, 1% DMSO; void marker M3

Sequence of immobilized Aβ fibrils (P05067 672-713 limits assumed): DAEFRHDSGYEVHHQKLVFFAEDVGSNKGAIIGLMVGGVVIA

Row | Structure (SMILES) | % of Shift [%]
1 | O=S(=O)([O-])OC1C(OS(=O)(=O)[O-])C(OS(=O)(=O)[O-])C(OS(=O)(=O)[O-])C(OS(=O)(=O)[O-])C1OS(=O)(=O)[O-].[K+].[K+].[K+].[K+].[K+].[K+] (centres unmarked) [Compound I-6005, myo-inositol hexasulfate hexapotasium, reference compound] | 4
2 | COC1C(O)C2OC3(CCCCC3)OC2C2OC3(CCCCC3)OC12 (racemic) [Compound 53226-6, 1,2,3,4-DL-O-cyclohexyldene-5-O-methyl-L-chiro-inositol, reference compound] | 2
3 | CC(C)(C)C(=O)OC1C(O)C(OC(=O)C(C)(C)C)C(OC(=O)C(C)(C)C)C(OC(=O)C(C)(C)C)C1OC(=O)C(C)(C)C (centres unmarked) [Compound 37387002, 2,3,4,5-tetrakis[(2,2-dimethylpropanoyl)oxy]-6-hydroxycyclohexyl pivalate] | 5
4 | CC(=O)OC1C(OC(=O)CC(C)C)C(OC(=O)CC(C)C)C(OC(=O)CC(C)C)C(OC(=O)CC(C)C)C1OC(=O)CC(C)C (centres unmarked) [Compound 37387013, 2-(acetyloxy)-3,4,5,6-tetrakis[(3-methylbutanoyl)oxy]cyclohexanyl 3-methylbutanoate] | 3
5 | CC(C)C(=O)OC1C(O)C(OC(=O)C(C)C)C(OC(=O)C(C)C)C(OC(=O)C(C)C)C1OC(=O)C(C)C (centres unmarked) [Compound 37387001, 2-hydroxy-3,4,5,6-tetrakis(isobutyryloxy)cyclohexyl 2-methylpropanoate] | 4
6 | CC(C)CC(=O)OC1C(O)C(OC(=O)CC(C)C)C(OC(=O)CC(C)C)C(OC(=O)CC(C)C)C1OC(=O)CC(C)C (centres unmarked) [Compound 37387009, 2-hydroxy-3-4,5,6-tetrakis[(3-methylbutanoyl)oxo]cyclohexyl 3-methylbutanoate] | 2
7 | OC1[C@@H](O)[C@H](O)C(O[C@H]2OC[C@H](O)[C@H](O)[C@H]2O)[C@H](O)[C@H]1O (stereo partly drawn) [Compound A-9826, 2-O-b-L-Arabinopyranosyl myo-inositol, reference compound] | 3
8 | CC(C)C(=O)OC1C(OC(=O)C(C)C)C(OC(=O)C(C)C)C(OC(=O)C(C)C)C(OC(=O)C(C)C)C1OC(=O)C(C)C (centres unmarked) [Compound 37387007, 2,3,4,5,6-pentakis(isobutyryloxy)cyclohexyl 2-methylproanoate] | 5
9 | [H]/N=C(/N)N[C@H]1[C@H](O)[C@@H](O)[C@H](O[C@@H]2O[C@@H](C)[C@](O)(C=O)[C@H]2O[C@@H]2O[C@@H](CO)[C@H](O)[C@@H](O)[C@@H]2NC)[C@@H](N/C(N)=N\[H])[C@@H]1O [Compound 56501, Streptomycin sulfate, reference compound] | 1

Same assay, conditions: FAC-MS screen; shift of free Aβ monomer breakthrough on immobilized Aβ fibrils in presence of compound; scale not given

Row | Aβ Shift | Structure (SMILES)
10 | 4 | CC(=O)O[C@@H]1[C@@H](OC(=O)C(C)(C)C)[C@H](OC(=O)C(C)(C)C)[C@H](OC(C)=O)[C@H](OC(=O)C(C)(C)C)[C@H]1OC(=O)C(C)(C)C
11 | 1 | CC(C)NC(=O)C12CC3(C)CC(C)(CC(C)(C3)C1)C2
12 | 0 | CC1CC(C)(C(=O)O)CCC1(C)C (centres unmarked)
13 | 1 | CC1CCC(C(C)C)C(OCC(O)CN2CCOCC2)C1 (centres unmarked)
14 | 2 | CC1CC(NN(C)C)C(C#N)(C#N)C(C)C1(C#N)C#N (centres unmarked)
15 | 2 | CC1CCCC(N2CNC(=S)NC2)C1C (centres unmarked)
16 | 1 | CC12CC3(C)CC(C)(C1)CC(CC(=O)O)(C2)C3
17 | 1 | CC1CC2(C)CC(C)C1(CO)CO2 (centres unmarked)
18 | 2 | CN(C)CCOC(=O)C12CC3(C)CC(C)(CC(C)(C3)C1)C2
19 | 0 | O=C1OC2C3CC([C@@H]2I)[C@@H](CO)C13 (some centres unmarked)
20 | 1 | Cl.NC1C2CC3C1C3C2Cl (centres unmarked)
21 | 0 | CC1(C)CC(=O)C2=C(C1)CC1(C)CC(C)(C)CC2(C#N)C1 (centres unmarked)
22 | 2 | CC[N+](CC)(CC)CCCOC1CC(C)CCC1C(C)C (centres unmarked)
23 | 1 | CC12CC3CC(C)(C1)CC(C(=O)NO)(C3)C2
24 | 1 | O=C(O)C1(O)CC(O)C(O)C(O)C1 (centres unmarked)
25 | 1 | CC12CC3CC(CO)(C1)CC(c1ccccc1)(C3)C2 (centres unmarked)
26 | 1 | CC12CC3(C)CC(C)(C1)CC(NC(=O)NC(C)(C)C)(C2)C3
27 | 0 | O=S(=O)(c1ccccc1)C1C2CC3C(C2Cl)C31 (centres unmarked)
28 | 1 | C=CC1CCC(O)C(N(C)C(=S)Nc2ccccc2)C1 (centres unmarked)
29 | 1 | CC1CCC(COC(=O)CN2CCCCC2)C(C)C1 (centres unmarked)
30 | 4 | CC(C)C(=O)O[C@@H]1[C@@H](OC(=O)C(C)C)[C@H](OC(=O)C(C)C)[C@H](O)[C@H](OC(=O)C(C)C)[C@H]1OC(=O)C(C)C

Row | Aβ Shift | Structure (SMILES)
31 | 1 | CC(=O)NC1CC(Cl)CCC1C (centres unmarked)
32 | 0 | NC12C3C4C5C1C2C(Br)(C43)C51OCCO1 (centres unmarked)
33 | 2 | CC1CCCC(NC(=O)c2cc3sccc3n2C)C1C (centres unmarked)
34 | 1 | CC(=O)NC12CC3CC(C)(C1)CC(NC(C)=O)(C3)C2
35 | 1 | CC(=O)NC12CC3(C)CC(C)(C1)CC(NC(C)=O)(C3)C2
36 | 1 | CN(C)C(=O)C12CC3(C)CC(C)(CC(C)(C3)C1)C2
37 | 0 | CC1CC(NC(=O)C2CCC2)CC(C)(C)C1 (centres unmarked)
38 | 0 | CC1CC(NC(=O)c2cccc3ccccc23)CC(C)(C)C1 (centres unmarked)
39 | 0 | CC1CC(OC(=O)/C=C/c2ccccc2)CC(C(C)C)C1 (centres unmarked)
40 | 2 | CC(NC(=O)C12CC3(C)CC(C)(CC(C)(C3)C1)C2)C(=O)O (centres unmarked)
41 | 2 | CC12CC3(C)CC(N)(C1)CC(C(=O)O)(C2)C3
42 | 5 | CC(C)(C)C(=O)O[C@@H]1[C@@H](OC(=O)C(C)(C)C)[C@H](OC(=O)C(C)(C)C)[C@H](O)[C@H](OC(=O)C(C)(C)C)[C@H]1OC(=O)C(C)(C)C
43 | 1 | CC(CCc1ccc(O)cc1)NC1CCCC(C)C1C (centres unmarked)
44 | 2 | CC12CC3CC(C)(C1)CC(CC(=O)NNC(N)=O)(C3)C2
45 | 1 | CC1CCC(COC(=O)CN2CCOCC2)C(C)C1 (centres unmarked)
46 | 1 | CCC12CC3CC(O)(C1)CC(C(=O)O)(C3)C2 (centres unmarked)
47 | 1 | Cc1ccc[n+](CC(=O)OC2CC(C)CCC2C(C)C)c1 (centres unmarked)
48 | 1 | CNC(=O)C12CC3(C)CC(C)(CC(C)(C3)C1)C2
49 | 0 | CC1CC(NC(=O)c2cccs2)CC(C)(C)C1 (centres unmarked)
50 | 2 | CC1CCC(C(C)C)C(OC(=O)c2ccco2)C1 (centres unmarked)
51 | 1 | CC1CCC(C(C)C)C(OC(=O)C[n+]2ccccc2)C1 (centres unmarked)

Row | Aβ Shift | Structure (SMILES)
52 | 1 | CC12CC3CC(O)(C1)CC(C(=O)O)(C3)C2 (centres unmarked)
53 | 0 | CC1CCC(O[C@H]2C=CC(=O)O2)C(C(C)C)C1 (some centres unmarked)
54 | 1 | CC1C2CC3(C)CC1(C)CC(C1(C)CC(=O)O1)(C2)C3 (centres unmarked)
55 | 1 | CC1CCCC(NC(=O)c2cc3c(s2)CSC3)C1C (centres unmarked)
56 | 1 | CC1CCC(C(C)C)C(OC(=O)NN)C1 (centres unmarked)
57 | 4 | CCC(=O)O[C@H]1[C@H](OC(=O)CC)[C@@H](OC(=O)CC)[C@H](OC(=O)CC)[C@@H](OC(=O)CC)[C@H]1OC(=O)CC
58 | 1 | Cc1cc(NC(=O)C23CC4CC(C)(CC(C)(C4)C2)C3)no1
59 | 4 | CC(C)(C)C(=O)O[C@H]1[C@H](OC(=O)C(C)(C)C)[C@@H](OC(=O)C(C)(C)C)[C@H](OC(=O)C(C)(C)C)[C@@H](OC(=O)C(C)(C)C)[C@H]1OC(=O)C(C)(C)C
60 | 1 | O=C(O)C1CC(C(=O)O)C(C(=O)O)CC1C(=O)O (centres unmarked)
61 | 1 | COC(=O)[C@@H]1C[C@H](O)C[C@H](C(=O)OC)C1
62 | 1 | CC1CCC(C(C)C)C(OCC(O)CN2CCCCC2)C1 (centres unmarked)
63 | 2 | CC12CC3CC(C)(C1)CC(c1ccc(O)cc1)(C3)C2
64 | 1 | Cc1cc[n+](CC(=O)OC2CC(C)CCC2C(C)C)cc1 (centres unmarked)
65 | 1 | CC12CC3CC(C)(C1)CC(C(N)=O)(C3)C2
66 | 1 | COC(=O)C12CCC(C)(C(O)C1)C2(C)C (centres unmarked)
67 | 2 | CC1CCCC(NC(=O)c2n[nH]c(=O)c3ccccc23)C1C (centres unmarked)
68 | 1 | CC12CC3CC(C)(C1)CC(C(=O)NC(C)(C)CO)(C3)C2
69 | 1 | Nc1ncnc2c1ncn2C1CCC(CO)C(O)C1 (centres unmarked)
70 | 2 | CC12CC3(C)CC(C)(C1)CC(C(=O)NCCO)(C2)C3
71 | 2 | O=C(O)C1C2CC3C(OC(=O)C31)C2Cl (centres unmarked)
72 | 0 | CCCCCCCCCC(=O)NC1CCCC(C)C1C (centres unmarked)

Row | Aβ Shift | Structure (SMILES)
73 | 1 | CC1(C(=O)O)CC(C)(C(=O)O)CC(C)(C(=O)O)C1 (centres unmarked)
74 | 1 | CC1CCC(C(C)(C)C)C(O)C1 (centres unmarked)
75 | 1 | C=CCNC(=O)C12CC3(C)CC(C)(CC(C)(C3)C1)C2
76 | 2 | CC1CCC(COC(=O)C[N+]2(C)CCCCC2)C(C)C1 (centres unmarked)
77 | 2 | CC1CCCC(NC(=O)c2ccccc2C(=O)O)C1C (centres unmarked)
78 | 0 | CC(C)(C)C1CC(C(=O)O)CC(C(=O)O)C1 (centres unmarked)
79 | 1 | CCC(=O)OC1CCC(C)CC1C(C)(C)C(C)C (centres unmarked)
80 | 0 | Cc1cccc(NC(=O)C23CCC(C)(C(O)C2)C3(C)C)n1 (centres unmarked)
81 | 1 | CC12CC3(C)CC(C)(C1)CC(N)(C2)C3
82 | 2 | O=C(O)C12CC3CC(C(=O)O)(C1)CC(C(=O)O)(C3)C2
83 | 0 | CC1CCCC(NC(=O)C2CCCCC2C(=O)O)C1C (centres unmarked)
84 | 1 | CC12CC3CC(C)(C1)CC(C(Cl)C(=O)O)(C3)C2 (centres unmarked)
85 | 1 | CC1CCC(C(C)C)C(OCC(O)CNC(C)C)C1 (centres unmarked)
86 | 0 | CC1(C)CC2(C)CC3=C([C@H](CO)C(C)(C)C3)C(CO)(C1)C2 (some centres unmarked)
87 | 0 | OCC1CC(Cl)CC(Cl)C1O (centres unmarked)
88 | 0 | COc1cccc(C(=O)OC2CC(C)CC(C)C2)c1 (centres unmarked)
89 | 1 | CC12CC3(C)CC(N)(C1)CC(O)(C2)C3
90 | 1 | CC1CCCC(NC(=O)c2ccc3snnc3c2)C1C (centres unmarked)
91 | 1 | CC1CCCC(NS(=O)(=O)c2cccs2)C1C (centres unmarked)
92 | 1 | CC1CCC(C(C)CS)CC1S (centres unmarked)
93 | 0 | CC1CC(C(=O)O)CC(C(=O)O)C1 (centres unmarked)

Row | Structure (SMILES) | Aβ Shift
94 | CCN1CCC(NC2CCCC(C)C2C)CC1 (centres unmarked) | 1

Same assay, conditions: increasing concentrations; breakthrough curves shifted to the left (greater % shift); FIG. 3

Row | Structure (SMILES) | effect of increasing concentrations on free Aβ monomer binding time
95 | O[C@H]1[C@H](O)[C@@H](O)[C@H](O)[C@@H](O)[C@@H]1O [scyllo-cyclohexanehexyl, scyllo-inositol, reference compound] | dose dependent reduction in the free Aβ monomer binding time
